The target in this assay is T1, TGF-beta receptor type-1 (Homo sapiens, UniProt P36897).
T1 sequence (P36897 whole entry): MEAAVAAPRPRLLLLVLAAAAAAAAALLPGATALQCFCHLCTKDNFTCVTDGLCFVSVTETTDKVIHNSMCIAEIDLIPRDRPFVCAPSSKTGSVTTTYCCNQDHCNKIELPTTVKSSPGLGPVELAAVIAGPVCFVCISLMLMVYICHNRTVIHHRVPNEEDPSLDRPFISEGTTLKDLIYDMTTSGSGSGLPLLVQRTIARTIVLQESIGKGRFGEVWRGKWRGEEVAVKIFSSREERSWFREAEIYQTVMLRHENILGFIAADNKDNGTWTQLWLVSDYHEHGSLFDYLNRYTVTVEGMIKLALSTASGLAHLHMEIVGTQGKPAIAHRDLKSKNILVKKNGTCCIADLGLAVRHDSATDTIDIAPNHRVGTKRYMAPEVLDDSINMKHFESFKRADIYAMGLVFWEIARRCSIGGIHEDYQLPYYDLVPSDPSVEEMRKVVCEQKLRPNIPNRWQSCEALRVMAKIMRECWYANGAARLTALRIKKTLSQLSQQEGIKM
As to the kind of experiment: Enzymatic Activity Assay. The protocol: The enzymatic activity of compounds of the present invention was monitored measuring the formation of ADP using the ADP-GLO Kinases assay. Following the incubation of the purified enzyme, a substrate and ATP, the produced ADP was converted into ATP, which in turn was converted into light by Ultra-Glo Luciferase. The luminescent signal positively correlated with ADP amount and kinase activity. […] All reactions/incubations were performed at 25° C. Compound and ALK5 kinase were mixed and incubated for 15 mins. […] After an incubation of 150 min, the reaction was stopped, and ADP production detected with ADP-Glo kit according to manufacturer's indications. The assay was performed in 384-well format and was validated using a selection of reference compounds that was tested in 11 point concentration-response curve.

As for `O=C(CCN(C1COC1)C1COC1)Nc1cc(N2CCOc3cnc(-c4cc(Cl)ccc4F)cc32)ccn1` [US20240116947, Example 21], the IC50 was less than 1 nM.

(Values after BindingDB's records for patent US20240116947 (Chiesi Farmaceutici, 2024).)
